# According to ChEMBL document CHEMBL3272169, “10-Hydroxy-4-methyl-2,3,4,5,6,7-hexahydro-1,6-methano-1H-4-benzazonine derivatives (homobenzomorphans) as analgesics” (J Med Chem, 1976):
# Counter-ions that a name gives are not always drawn.
# Key:
# Mus musculus = assay: Analgesic Activity in sc dosed albino dd mouse by tail pressure stimuli method; type: functional
# [1] = Acute toxicity in iv dosed albino dd mouse; type: organism-based; details: in vivo
Compound,ED50 (Mus musculus) [µmol/kg],LD50 [1] [µmol/kg]
CC(O)C(=O)O.CN1CCC2CC(Cc3ccccc32)C1 (stereo unspecified),53.1,106
Br.CN1CC[C@@H]2CC(Cc3ccc(O)cc32)C1,10.7,121
CC(O)C(=O)O.C[C@H]1C2Cc3ccc(O)cc3[C@@H]1CCN(C)C2,9.9,184
CC(O)C(=O)O.C[C@@H]1C2Cc3ccc(O)cc3[C@@H]1CCN(C)C2,8,153
CC(O)C(=O)O.CN1CC[C@]2(C)CC(Cc3ccc(O)cc32)C1,7,67
CC(O)C(=O)O.C[C@H]1C2Cc3ccc(O)cc3[C@]1(C)CCN(C)C2,5.2,126
Br.C[C@@H]1C2Cc3ccc(O)cc3[C@]1(C)CCN(C)C2,4.1,113
COc1ccc2c3c1O[C@H]1[C@@H](O)C=C[C@H]4[C@@H](C2)N(C)CC[C@@]341 [CODEINE PHOSPHATE],30.7,
CN1CC[C@]23c4c5ccc(O)c4O[C@H]2[C@@H](O)C=C[C@H]3[C@H]1C5 [MORPHINE HYDROCHLORIDE],4.4,
